Assay results published in paper PMC6985185 (Breast cancer research and treatment, 2019).
Several values for one entry are separate records, joined by “and”; a condition that tells them apart may be missing. Identical values can stand only once.

Assays:
[1] = system: TamR (tamoxifen resistant) xenograft tumors; assay: TamR Study 1: growth of tamoxifen-resistant xenograft tumors under fulvestrant; type: in vivo, Nu:J mice
[2] = Circulating plasma levels of fulvestrant after a single injection (LC/MS/MS); type: in vivo, Nu:J mice; details: single injection of 25 or 200 mg/kg; plasma collected 1, 3, 5, or 7 days after administration
[3] = Circulating plasma levels of fulvestrant at euthanasia, TamR Study 1 (LC/MS/MS); type: in vivo, Nu:J mice; details: female, Nu/J, mouse, subcutaneous
[4] = system: ER target genes AGR2, AGR3, and KRT13; assay: RT-qPCR of tamoxifen responsive ER target genes in TamR tumors; type: in vivo, Nu:J mice
uterus = assay: Uterine wet weight in LTED tumor bearing mice; type: in vivo, Nu:J mice; details: ovariectomized LTED tumor bearing mice, after 4 weeks of treatment at the LTED study doses
[5] = system: HCC1428 breast cancer xenograft tumors; assay: HCC1428 Study: growth of estrogen dependent xenograft tumors; type: in vivo, Nu:J mice; details: 25 mg/kg sc qw, 4 weeks; ovariectomized mice receiving oral estradiol
[6] = current clinical protocol; cited from earlier work
breast cancer [7] = details: 250 mg monthly; patients that had already progressed during AI treatment; cited from earlier work
ER = details: months of treatment with originally approved 250 mg/month regimen; cited from earlier work
breast cancer [8] = details: 500 vs 250 mg/month, loading regimen 500 mg on d1, d14, d29; cited from earlier work
estrogen receptor (ER) [9] = molecular target: T1, estrogen receptor (ER) (Homo sapiens, UniProt P03372); assay: Immunoblot of ER levels in HCC1428 tumors; details: 25 mg/kg sc qw, 4 weeks
T1 sequence (P03372 1-595): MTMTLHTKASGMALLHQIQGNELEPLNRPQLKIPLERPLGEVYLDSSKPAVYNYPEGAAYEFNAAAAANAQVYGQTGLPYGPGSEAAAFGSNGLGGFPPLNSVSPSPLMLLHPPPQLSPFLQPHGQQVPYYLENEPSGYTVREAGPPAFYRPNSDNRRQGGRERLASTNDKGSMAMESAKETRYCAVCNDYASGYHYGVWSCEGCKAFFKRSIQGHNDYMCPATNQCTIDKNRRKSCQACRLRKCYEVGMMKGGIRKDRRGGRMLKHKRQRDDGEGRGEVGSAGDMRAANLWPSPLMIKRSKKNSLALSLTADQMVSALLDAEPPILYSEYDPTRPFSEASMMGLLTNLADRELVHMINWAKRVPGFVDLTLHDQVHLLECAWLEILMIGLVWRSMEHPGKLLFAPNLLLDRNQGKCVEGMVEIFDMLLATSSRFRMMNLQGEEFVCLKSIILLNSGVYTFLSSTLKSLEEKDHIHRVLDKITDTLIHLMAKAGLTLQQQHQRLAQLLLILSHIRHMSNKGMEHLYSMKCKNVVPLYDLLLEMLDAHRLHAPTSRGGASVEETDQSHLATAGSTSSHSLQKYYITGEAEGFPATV

estrogen receptor (ER) [10] = molecular target: T1, estrogen receptor (ER); assay: Immunoblot of ER levels in TamR tumors, Study 1; details: 28 days of treatment
[11] = all doses administered (25-200 mg/kg)

SMILES: C[C@]12CC[C@@H]3c4ccc(O)cc4C[C@@H](CCCCCCCCC[S+]([O-])CCCC(F)(F)C(F)(F)F)[C@H]3[C@@H]1CC[C@@H]2O (stereo partly shown) [Fulvestrant, fulvestrant]
- Inhibition of TamR tumor growth vs vehicle control ([1]; 4 weekly injections of 25, 50, 100, or 200 mg/kg (all doses), no significant differences between doses): significant inhibition of tumor growth
- % tumor growth inhibition of TamR tumors ([1]; fulvestrant 25 mg/kg sc weekly, day 0 of treatment): −1%
- % tumor growth inhibition of TamR tumors ([1]; fulvestrant 25 mg/kg sc weekly, day 2 of treatment): 25%
- % tumor growth inhibition of TamR tumors ([1]; fulvestrant 25 mg/kg sc weekly, day 4 of treatment): 20%
- % tumor growth inhibition of TamR tumors ([1]; fulvestrant 25 mg/kg sc weekly, day 7 of treatment): 21%
- % tumor growth inhibition of TamR tumors ([1]; fulvestrant 25 mg/kg sc weekly, day 9 of treatment): 18%
- % tumor growth inhibition of TamR tumors ([1]; fulvestrant 25 mg/kg sc weekly, day 11 of treatment): 24%
- % tumor growth inhibition of TamR tumors ([1]; fulvestrant 25 mg/kg sc weekly, day 14 of treatment): 33%
- % tumor growth inhibition of TamR tumors ([1]; fulvestrant 25 mg/kg sc weekly, day 16 of treatment): 29%
- % tumor growth inhibition of TamR tumors ([1]; fulvestrant 25 mg/kg sc weekly, day 18 of treatment): 39%
- % tumor growth inhibition of TamR tumors ([1]; fulvestrant 25 mg/kg sc weekly, day 21 of treatment): 44%
- % tumor growth inhibition of TamR tumors ([1]; fulvestrant 25 mg/kg sc weekly, day 23 of treatment): 45%
- % tumor growth inhibition of TamR tumors ([1]; fulvestrant 25 mg/kg sc weekly, day 25 of treatment): 47%
- % tumor growth inhibition of TamR tumors ([1]; fulvestrant 25 mg/kg sc weekly, day 28 of treatment): 47%
- % tumor growth inhibition of TamR tumors ([1]; fulvestrant 50 mg/kg sc weekly, day 0 of treatment): −1%
- % tumor growth inhibition of TamR tumors ([1]; fulvestrant 50 mg/kg sc weekly, day 2 of treatment): 24%
- % tumor growth inhibition of TamR tumors ([1]; fulvestrant 50 mg/kg sc weekly, day 4 of treatment): 20%
- % tumor growth inhibition of TamR tumors ([1]; fulvestrant 50 mg/kg sc weekly, day 7 of treatment): 26%
- % tumor growth inhibition of TamR tumors ([1]; fulvestrant 50 mg/kg sc weekly, day 9 of treatment): 28%
- % tumor growth inhibition of TamR tumors ([1]; fulvestrant 50 mg/kg sc weekly, day 11 of treatment): 31%
- % tumor growth inhibition of TamR tumors ([1]; fulvestrant 50 mg/kg sc weekly, day 14 of treatment): 37%
- % tumor growth inhibition of TamR tumors ([1]; fulvestrant 50 mg/kg sc weekly, day 16 of treatment): 40%
- % tumor growth inhibition of TamR tumors ([1]; fulvestrant 50 mg/kg sc weekly, day 18 of treatment): 44%
- % tumor growth inhibition of TamR tumors ([1]; fulvestrant 50 mg/kg sc weekly, day 21 of treatment): 51%
- % tumor growth inhibition of TamR tumors ([1]; fulvestrant 50 mg/kg sc weekly, day 23 of treatment): 58%
- % tumor growth inhibition of TamR tumors ([1]; fulvestrant 50 mg/kg sc weekly, day 25 of treatment): 59%
- % tumor growth inhibition of TamR tumors ([1]; fulvestrant 50 mg/kg sc weekly, day 28 of treatment): 62%
- % tumor growth inhibition of TamR tumors ([1]; fulvestrant 100 mg/kg sc weekly, day 0 of treatment): −3%
- % tumor growth inhibition of TamR tumors ([1]; fulvestrant 100 mg/kg sc weekly, day 2 of treatment): 23%
- % tumor growth inhibition of TamR tumors ([1]; fulvestrant 100 mg/kg sc weekly, day 4 of treatment): 20%
- % tumor growth inhibition of TamR tumors ([1]; fulvestrant 100 mg/kg sc weekly, day 7 of treatment): 27%
- % tumor growth inhibition of TamR tumors ([1]; fulvestrant 100 mg/kg sc weekly, day 9 of treatment): 16%
- % tumor growth inhibition of TamR tumors ([1]; fulvestrant 100 mg/kg sc weekly, day 11 of treatment): 32%
- % tumor growth inhibition of TamR tumors ([1]; fulvestrant 100 mg/kg sc weekly, day 14 of treatment): 44%
- % tumor growth inhibition of TamR tumors ([1]; fulvestrant 100 mg/kg sc weekly, day 16 of treatment): 36%
- % tumor growth inhibition of TamR tumors ([1]; fulvestrant 100 mg/kg sc weekly, day 18 of treatment): 50%
- % tumor growth inhibition of TamR tumors ([1]; fulvestrant 100 mg/kg sc weekly, day 21 of treatment): 46%
- % tumor growth inhibition of TamR tumors ([1]; fulvestrant 100 mg/kg sc weekly, day 23 of treatment): 53%
- % tumor growth inhibition of TamR tumors ([1]; fulvestrant 100 mg/kg sc weekly, day 25 of treatment): 49%
- % tumor growth inhibition of TamR tumors ([1]; fulvestrant 100 mg/kg sc weekly, day 28 of treatment): 58%
- % tumor growth inhibition of TamR tumors ([1]; fulvestrant 200 mg/kg sc weekly, day 0 of treatment): 2%
- % tumor growth inhibition of TamR tumors ([1]; fulvestrant 200 mg/kg sc weekly, day 2 of treatment): 28%
- % tumor growth inhibition of TamR tumors ([1]; fulvestrant 200 mg/kg sc weekly, day 4 of treatment): 24%
- % tumor growth inhibition of TamR tumors ([1]; fulvestrant 200 mg/kg sc weekly, day 7 of treatment): 24%
- % tumor growth inhibition of TamR tumors ([1]; fulvestrant 200 mg/kg sc weekly, day 9 of treatment): 25%
- % tumor growth inhibition of TamR tumors ([1]; fulvestrant 200 mg/kg sc weekly, day 11 of treatment): 39%
- % tumor growth inhibition of TamR tumors ([1]; fulvestrant 200 mg/kg sc weekly, day 14 of treatment): 47%
- % tumor growth inhibition of TamR tumors ([1]; fulvestrant 200 mg/kg sc weekly, day 16 of treatment): 48%
- % tumor growth inhibition of TamR tumors ([1]; fulvestrant 200 mg/kg sc weekly, day 18 of treatment): 53%
- % tumor growth inhibition of TamR tumors ([1]; fulvestrant 200 mg/kg sc weekly, day 21 of treatment): 61%
- % tumor growth inhibition of TamR tumors ([1]; fulvestrant 200 mg/kg sc weekly, day 23 of treatment): 66%
- % tumor growth inhibition of TamR tumors ([1]; fulvestrant 200 mg/kg sc weekly, day 25 of treatment): 67%
- % tumor growth inhibition of TamR tumors ([1]; fulvestrant 200 mg/kg sc weekly, day 28 of treatment): 74%
- Time of highest plasma level after single injection [2]: highest levels detected one day after administration
- concentration at 7 days after final dose ([3]; 25 mg/kg): 34.6 ng/mL and 57 nM
- concentration at 7 days after final dose ([3]; 50 mg/kg): 64.9 ng/mL and 107 nM
- concentration at 7 days after final dose ([3]; 100 mg/kg): 95.6 ng/mL and 157 nM
- concentration at 7 days after final dose ([3]; 200 mg/kg): 207 ng/mL and 340 nM
- mRNA expression of anterior gradient protein 3 (AGR3) in TamR tumors [4, 11]: dramatic downregulation
- mRNA expression of keratin 13 (KRT13) in TamR tumors [4, 11]: dramatic downregulation
- mRNA expression of AGR2 in TamR tumors ([4]; only for doses that resulted in quantitative downregulation of ER protein): modest reduction in AGR2 expression
- Uterine wet weight (measure of uterine stimulation) (uterus): non-significant trend toward reduced uterine weight
- Effect on HCC1428 xenograft tumor growth [5]: Tumor stasis
- Cmax observed per current protocol in patients [6]: ~28 ng/mL
- Response rate in the EFFECT trial (breast cancer [7]): 7.4%
- Patients exhibiting intratumoral [(18)F]fluoroestradiol (FES) binding during follow up PET scans (ER): 30%
- Clinical response to higher dose with loading regimen (breast cancer [8]): improved response rate and increased time to progression
- ER expression in HCC1428 tumors (western blotting) (estrogen receptor (ER) [9]): modest but significant downregulation of ER expression
- ER downregulation in TamR tumors (immunoblot) (estrogen receptor (ER) [10]; 25 mg/kg dose): did not result in significant ER downregulation
- ER downregulation in TamR tumors (immunoblot) (estrogen receptor (ER) [10]; 50, 100, and 200 mg/kg doses): Significant (p < 0.001) downregulation of ER
